Results on five molecules are retold here after US6875773B1, “Combination therapy for treatment of FIV infection” (priority 1998, dated 2005).

One assay deals with FIV. The conditions noted are these: background statement, no reference given; cited from earlier work.
Assay [1] concerns FIVBang. The experiment in a line: Anti-FIV activity (RT activity) in primary cat PBMC infected with FIVBang. Type of assay: cell-based, Feline immunodeficiency virus. The conditions noted are these: for effect of adding the protease inhibitor to the AZT/3TC combination on antiviral activity: FIVBang; for FIV replication in PBMC (RT activity), result in words: FIVBang 100 TCID50, drug added immediately before inoculation, nontoxic doses. The protocol:
Nucleoside analogue and PI doses were 0.1 μM in Experiment 1 (panel A) and 0.05 μM and 0.01 μM, respectively, in Experiment 2 (panel B).
(§1) As a means to simulate in vivo conditions, primary peripheral blood mononuclear cells (PBMC) from specific pathogen free (SPF) cats were next used as the indicator cells. Primary PBMC isolated by ficoll hypaque method were stimulated with concanavalin A for 3 days and cultured for an additional 2 weeks before their use in drug studies (Staszewski, 1995). Antiretroviral drug(s) were added to the PBMC cultures (1×10^6 cells/ml) immediately before FIVBang, (subtype B) or FIVUK-8(subtype A) inoculation of 100 50% tissue culture infectious dose (TCID50).

A further assay has as its system FIVPet. Put plainly: Anti-FIV activity (RT activity in supernatant) in feline T-cell line chronically infected with FIVPet (FL-4 cells). Type of assay: cell-based, Feline immunodeficiency virus. The following applies: nontoxic doses. The procedure:
(§2) The antiviral activity of the drugs at noncytotoxic doses were evaluated in feline T-cell lines chronically infected with either FIVPet (subtype A strain) (panel A), or FIVBang (subtype B strain) (panel B). The RT data are presented as % control, whereby % control represents RT mean of triplicate treated cultures divided by RT mean of triplicate untreated cultures and multiplied by 100. The RT data on harvest days at 6, 9, and 12 are shown.
(§3) In the first set of in vitro studies, feline T-cell lines chronically infected with FIVPet, (FL-4 cells) or FIVBang, (FIVBang/FeT-J cells) at 2×10^5 cells/ml were treated for 3 weeks with a single drug or various combinations of AZT, 3TC, an FIV protease inhibitor (FIV-PI; Hoescht-Bayer HBY-793), and HIV protease inhibitors (HIV-PI) (FIGS. 1A and 1B). Saquinavir (SQV) and Indinavir (IDV) were used as the HIV-PIs. Culture supernatants were harvested and the cells were resuspended in fresh culture media containing appropriate drug(s) at […]. Viral replication was determined by measuring the levels of reverse transcriptase (RT) activity in the culture supernatants (Rey et al., 1984). Drug toxicity in these cultures were monitored by viability and absolute cell count analyses using trypan blue exclusion method (Mishell et al., 1980).
(§4) Single and combination drug doses which were determined to be nontoxic to the test cells were used in these studies.

The test system of the next assay is FIVUK-8. Put plainly: Anti-FIV activity (RT activity) in primary cat PBMC infected with FIVUK-8. Type of assay: cell-based, Feline immunodeficiency virus. The conditions noted are these: for effect of adding the protease inhibitor to the AZT/3TC combination on antiviral activity: FIVUK-8; for FIV replication in PBMC (RT activity), result in words: FIVUK-8 100 TCID50, drug added immediately before inoculation, nontoxic doses. The procedure:
Nucleoside analogue and P1 doses were 0.1 μM and 0.01-0.5 μM, respectively, in Experiment 1 (panel A) and 0.05 μM and 0.01-0.5 μM respectively, in Experiment 2 (panel B).
as §1

The subject of assay [2] is FIVBang. The experiment in a line: Anti-FIV activity (RT activity in supernatant) in feline T-cell line chronically infected with FIVBang (FIVBang/FeT-J cells). In kind it is cell-based, Feline immunodeficiency virus. The following applies: nontoxic doses. The procedure: as §2, §3, §4
The next assay has as its target FIV protease (Feline immunodeficiency virus, UniProt P16088). The conditions noted are these: Dunn et al., 1994; Wlodawer et al., 1995; cited from earlier work.
The next assay deals with HIV protease (Human immunodeficiency virus type 1 group M subtype B, UniProt P04585). The conditions noted are these: Dunn et al., 1994; Wlodawer et al., 1995; cited from earlier work.

Take `CC(C)c1nc(CN(C)C(=O)N[C@H](C(=O)N[C@@H](Cc2ccccc2)C[C@H](O)[C@H](Cc2ccccc2)NC(=O)OCc2cncs2)C(C)C)cs1` [Ritonavir]: the “FIV replication in PBMC in vitro” value in the assay with FIV is recorded as “do not inhibit FIV replication”.
`CC(C)(C)NC(=O)[C@@H]1C[C@@H]2CCCC[C@@H]2CN1C[C@@H](O)[C@H](Cc1ccccc1)NC(=O)[C@H](CC(N)=O)NC(=O)c1ccc2ccccc2n1` [SQV, Saquinavir]: the “FIV replication in PBMC in vitro” value with FIV is recorded as “do not inhibit FIV replication”. The “effect of adding the protease inhibitor to the AZT/3TC combination on antiviral activity” value in the assay with FIVBang [1] and with FIVUK-8 was “did not enhance the antiviral activity of the AZT/3TC combination” each time. The “FIV replication in PBMC (RT activity), result in words” value (“FIV replication in PBMC (RT activity)” for short) in the assay on FIVBang [1] and with FIVUK-8 was “lack of anti-FIV activity” throughout. The “anti-FIV activity (RT activity), result in words” value in the assay with FIVPet and in the assay with FIVBang [2] was “neither SQV nor IDV alone had significant anti-FIV effect” each time.
Take `CC(C)(C)NC(=O)[C@@H]1CN(Cc2cccnc2)CCN1C[C@@H](O)C[C@@H](Cc1ccccc1)C(=O)N[C@H]1c2ccccc2C[C@H]1O` [IDV, Indinavir]: the “FIV replication in PBMC in vitro” value in the assay on FIV is given as “do not inhibit FIV replication”. Besides, the “effect of adding the protease inhibitor to the AZT/3TC combination on antiviral activity” value with FIVBang [1] and with FIVUK-8 was “did not enhance the antiviral activity of the AZT/3TC combination” throughout. Besides, the “FIV replication in PBMC (RT activity)” value in the assay with FIVBang [1] and with FIVUK-8 was “lack of anti-FIV activity” each time. Moreover, the “anti-FIV activity (RT activity), result in words” value in the assay on FIVPet and in the assay on FIVBang [2] was “neither SQV nor IDV alone had significant anti-FIV effect” each time.
Regarding `CC(C)[C@H](NC(=O)[C@H](Cc1cccc2ccccc12)CS(=O)(=O)C(C)(C)C)C(=O)N[C@@H](Cc1ccccc1)[C@H](O)[C@H](O)[C@H](Cc1ccccc1)NC(=O)[C@@H](NC(=O)[C@H](Cc1cccc2ccccc12)CS(=O)(=O)C(C)(C)C)C(C)C` [FIV-PI], the “binding to FIV protease” value at FIV protease is “efficiently binds”. Also, the “binding to HIV protease” value at HIV protease is “efficiently binds”. In addition, the “FIV replication in PBMC (RT activity)” value in the assay with FIVBang [1] and in the assay with FIVUK-8 was “inhibited FIV replication” in each case. In addition, the “inhibition of RT activity / FIV replication” value in the assay on FIVPet (treated for 3 weeks) and in the assay with FIVBang [2] (treated for 3 weeks) was 70-80% throughout.
In the case of `Cc1c(O)cccc1C(=O)N[C@@H](CSc1ccccc1)[C@H](O)CN1C[C@H]2CCCC[C@H]2C[C@H]1C(=O)NC(C)(C)C` [Nelfinavir], the “FIV replication in PBMC in vitro” value in the assay on FIV was “do not inhibit FIV replication”.
